In patent US12103952B2, “Methods for expressing proteins in axons” (Cornell University, priority 2010, dated 2024):
Non-standard residues stand in square brackets, D forms with d. Residues, ends and D or L forms follow the SMILES beside them. Nle = CCCC[C@H](N)C(=O)O

What was measured:
Type in all cases: cell-based, rat
CREB = CREB levels in severed axons by immunofluorescence; settings: severed axons, inhibitor present during NGF removal
Procedure: FIGS. 7A-B are results showing the axonal translation and retrograde transport of endogenous CREB. (A) CREB levels in severed axons of E15 DRGs were assayed by immunofluorescence with a CREB-specific antibody. CREB was depleted on removal of NGF, with near complete loss of fluorescence signals by 3 hours. […] The error bars represent s.e.m. (n=40). (B) CREB is depleted from axon terminals in a microtubule-dependent manner. CREB levels in severed axons were monitored, as in A, after removal and restoration of NGF, in the presence of LLnL or colchicine. Colchicine, but not LLnL, blocked the reduction in CREB levels following removal of NGF. The error bars represent s.e.m. (n=40).
E15 rat or E13 mouse embryonic dorsal root ganglion (DRG) explants were plated on glass-bottom culture dishes (MatTek) or glass coverslips pre-coated with 33 μg/ml poly-D-lysine and 1 μg/ml laminin. CREB^α/Δ−/+ animals used to generate CREB^α/Δ−/− embryos were from Jackson Labs. E15 dissociated DRG neurons were prepared as described by Wu et al., Nature 436, 1020-1024 (2005). DRGs were cultured in B27/Neurobasal medium (Invitrogen) supplemented with 100 ng/ml nerve growth factor (NGF) and […] 5′-fluorodeoxyuridine (5-FdU) for 3 days. siRNA-mediated knockdown in DRG neurons has been described previously by Higuchi et al., Biochemical & Biophysical Research Communications 301, 804-809 (2003) and was performed using siRNAs listed in Table S3. For measurements of CREB levels in isolated axons, axons were severed from cell bodies by removing the explant with a flame-sharpened Pasteur pipette (Wu et al., Nature 436, 1020-1024 (2005)). Modified Boyden chambers were based on the procedure of Twiss (Zheng et al., Journal of Neuroscience 21, 9291-9303 (2001)) and modified to obtain distal axons as described by Wu et al., Nature 436, 1020-1024 (2005). mRNA from harvested axons (Wu et al., Nature 436, 1020-1024 (2005)) was used to prepare a cDNA library using a modified, unbiased single cell protocol as described below. See also Tietjen et al., Neuron 38, 161-175 (2003). Compartmented (Campenot) cultures were prepared as described below. See also Campenot, Proc Natl Acad Sci USA 74, 4516-4519 (1977)).
Images and measurements of signals in axons were taken from the terminal 50 μm of the axon, except where indicated. Analyzed axons were a minimum of 2000 μm for all experiments. DRGs were fixed with 4% PFA in CBS overnight at 4° C., permeabilized with 0.5% Triton X-100/TBS, and blocked in 4% BSA/TBS for 1 hour. DRGs were labeled with antibodies (Table S4) in 2% BSA/0.1% Triton X-100/TBS overnight at 4° C. For image acquisition details, see below.
The axonal localization of CREB was also examined by immunofluorescence. Axons were severed from cultured DRG explants to rule out potential contributions from anterograde transport of cell body-derived CREB. […] Although the majority of CREB protein localized to the nucleus, with substantially lower levels in axons (FIG. 4D), the immunofluorescence signal in axons was specific. Similar immunofluorescence staining was seen using a different CREB-specific antibody that recognized a non-overlapping epitope.
The importin proteins, which bind nuclear-localization sequences (NLS) (Goldfarb et al., Trends in Cell Biology 14, 505-514 (2004)), are present in axons and mediate the retrograde trafficking of axonally-injected fluorescently-labeled NLS peptides (Hanz et al., Neuron 40, 1095-1104 (2003)). Since CREB contains a NLS that mediates its nuclear localization (Waeber & Habener, Mol Endocrinol 5, 1418-1430 (1991)), axonal CREB may be retrogradely transported to the cell body. To determine if endogenously-expressed CREB is retrogradely trafficked, we examined the time course of CREB reduction in axons upon replacement of media with NGF-free media. […]

[1] = test system: CREB reporter mRNA translation in DRG axons; assay: myr-dEGFP3′CREB Sindbis translation reporter in axons; settings: 40 μM LLnL, within 5 min, myr-dEGFP3′CREB-infected axons
Excerpt: FIGS. 5A-C are results showing NGF-dependent translation of a CREB reporter mRNA in axons. (A) Schematic diagram of the Sindbis viral reporter construct used to monitor CREB translation. The reporter contains a myristoylated, destabilized EGFP (myr-dEGFP) with the 3′UTR of CREB, expressed under control of the Sindbis subgenomic promoter (PSG). (B) E15 DRG explant cultures were infected with Sindbis constructs expressing myr-dEGFP3′CREB on DIV3 and fluorescence (bottom panel) and phase (top panel) images, approximately 1000 μm from the cell body were collected after 24 hours. Fluorescence images are shown in inverted contrast in order to more readily visualize puncta. Scale bar, 25 μm. […] EGFP fluorescence co-localizes with a population of S6-labeled ribosomal clusters. […]
FIGS. 6A-H are data showing that axonal CREB is specifically translated in response to NGF. […] (B) E15 DRG explant cultures were infected with Sindbis constructs expressing myr-dEGFP3′RhoA or myr-dEGFP3′H1f0 on DIV3 and fluorescence images were collected after 24 h. […] (D) Axons from DIV3 DRGs were analyzed for CREB and mitochondrial localizations by immunofluorescence using CREB-specific and VDAC/porin1-specific antibodies. […] CREB mRNA was detected by FISH using a CREB specific riboprobe. […] (H) Axons of DIV3 DRG explant cultures were analyzed by immunofluorescence for NGF effectors CREB, pTrkA and pErk5 at 3 DIV. […]

E15 DRG explant cultures = assay: Retrograde transport of photoactivatable Dendra-CREB reporter; settings: in presence of inhibitor
Procedure: FIGS. 8A-D are results showing the retrograde transport of a photoactivatable fluorescent CREB reporter protein. (A) E15 DRG explant cultures were infected with Sindbis constructs expressing Dendra or Dendra-CREB transcripts. Dendra and Dendra-CREB were visualized as green fluorescence (top panel), and growth cone-localized Dendra[-CREB] was photoactivated to its red form by 50 ms illumination of the boxed regions with a 408 nm laser. Movement of photoactivated Dendra signals was analyzed within the axon determined by green Dendra fluorescence mask. […] Photoactivated Dendra[-CREB] images are shown inverted in order to more readily visualize signals. Scale bar, 10 μm. (B) Quantification of data in (A). […] The expected diffusion rate of Dendra-CREB was calculated at various elapsed time points, using a previously measured diffusion coefficient (D) in neurons (Bloodgood & Sabatini, Science 310, 866-869 (2005)), in the formula x^2=(2Dt), where x is the average displacement. […] (C) Dendra or Dendra-CREB was photoactivated by 1 s illumination of a 40 μm axon segment approximately 1 mm from its respective cell body and levels of photoactivated Dendra fluorescence were analyzed in the respective cell nucleus. […] (D) Quantification of data in (C). n=10 cells per data point. *p=0.0012. […]

Row | SMILES | reduction of CREB levels upon removal of NGF (CREB) | eGFP fluorescence signal [1] | retrograde transport of Dendra-CREB (E15 DRG explant cultures)
1 | CCCC[C@@H](C=O)NC(=O)[C@H](CC(C)C)NC(=O)[C@H](CC(C)C)NC(C)=O [LLnL] (Ac-Leu-Leu-[Nle]-aldehyde) | unaffected | increased twofold | 
2 | COc1cc2c(c(OC)c1OC)-c1ccc(OC)c(=O)cc1[C@@H](NC(C)=O)CC2 [colchicine] | abolished the reduction in CREB levels |  | significantly blocked
3 | C=C(CC)C(=O)c1ccc(OCC(=O)O)c(Cl)c1Cl [ethacrynic acid] |  |  | significantly blocked
